{"source": "patent US20110144303A1", "about": "“Biologically Active Peptidomimetic Macrocycles” (AILERON Therapeutics, Inc., priority 2008, published 2011)", "key": {"[1]": {"assay": "Pharmacokinetics of SP-4 and SP-54 in Rats following IV dose", "from_the_text": "Table printed on a drawing sheet, Figure 19\nTitle: Pharmacokinetics of SP-4 and SP-54 in Rats following IV dose\nThe patent's description of the figure: FIG. 19 illustrates the pharmacokinetic properties of SP-4 and SP-54 peptidomimetic macrocycles in rats.\nFirst reader's note: Pharmacokinetic parameters in rats after IV dosing; the table is printed under a concentration-time plot that is not copied."}, "GST-Bcl-2 [2]": {"target": "GST-Bcl-2", "assay": "Kd", "protocol": "Table printed on a drawing sheet, Figure 5\nThe patent's description of the figure: FIG. 5 depicts binding properties to GST-Bcl-2 of SP-4 and SP-54 peptidomimetic macrocycles.\nFirst copying reader's note: Kd values belong to the plot beside the table, titled 'Saturation Binding Curves vs. 2 µM Receptor, 1x PBS + 5 mM CHAPS, 2.5% DMSO', with GST-Bcl-2 as the receptor.\nWhere the first naming reader finds the target: description_of_the_figure: FIG. 5 depicts binding properties to GST-Bcl-2 of SP-4 and SP-54 peptidomimetic macrocycles."}, "GST-Mcl-1": {"target": "GST-Mcl-1", "assay": "Kd", "protocol": "Table printed on a drawing sheet, Figure 4\nThe patent's description of the figure: FIG. 4 depicts binding properties to GST-Mcl-1 of SP-4 and SP-54 peptidomimetic macrocycles.\nFirst copying reader's note: Kd values belong to the adjacent saturation binding plot (stapled peptides + GST-Mcl-1, 2 µM receptor, 1x PBS + 5 mM CHAPS, 2.5% DMSO).\nWhere the first naming reader finds the target: description_of_the_figure: FIG. 4 depicts binding properties to GST-Mcl-1 of SP-4 and SP-54 peptidomimetic macrocycles."}, "Bcl-xL": {"target": "T1, Bcl-xL (Homo sapiens, UniProt Q07817)", "T1 construct": "GST", "T1 sequence (Q07817 whole entry, species assumed)": "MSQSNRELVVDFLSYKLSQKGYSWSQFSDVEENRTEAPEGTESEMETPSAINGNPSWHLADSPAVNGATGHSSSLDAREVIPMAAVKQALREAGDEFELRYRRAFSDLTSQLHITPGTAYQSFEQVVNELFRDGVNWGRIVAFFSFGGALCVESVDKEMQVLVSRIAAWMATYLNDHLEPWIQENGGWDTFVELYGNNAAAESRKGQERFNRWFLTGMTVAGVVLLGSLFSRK", "assay": "Protein-ligand binding experiment for Bcl-xL (SEC-LC-MS affinity selection)", "settings": "1 μM SP-4 and 5 μM Bcl-xL in PBS, 2.5% DMSO, 60 min at room temperature", "protocol": "Protein-ligand binding experiments for Bcl-xL. Simple protein-ligand binding experiments were conducted using the following representative procedure outlined for a simple system-wide control experiment using 1 μM SP-4 and 5 μM Bcl-xL. A 1 μL DMSO aliquot of a 40 μM stock solution of SP-4 is dissolved in 19 μL of PBS (Phosphate-buffered saline: 50 mM, pH 7.5 Phosphate buffer containing 150 mM NaCl). The resulting solution is mixed by repeated pipetting and clarified by centrifugation at 10 000 g for 10 min. To a 4 μL aliquot of the resulting supernatant is added 4 μL of 10 μM BCL-xL in PBS. Each 8.0 μL experimental sample thus contains 40 pmol (1.5 μg) of protein at 5.0 μM concentration in PBS plus 1 μM SP-4 and 2.5% DMSO. Duplicate samples thus prepared for each concentration point are incubated for 60 min at room temperature, and then chilled to 4° C. prior to size-exclusion chromatography-LC-MS analysis of 5.0 μL injections. Samples containing a target protein, protein-ligand complexes, and unbound compounds are injected onto an SEC column, where the complexes are separated from non-binding component by a rapid SEC step. The SEC column eluate is monitored using UV detectors to confirm that the early-eluting protein fraction, which elutes in the void volume of the SEC column, is well resolved from unbound components that are retained on the column. […]"}, "[3]": {"assay": "Pharmacokinetics of SP-1 and SP-35 in Rat following IV dose", "from_the_text": "Table printed on a drawing sheet, Figure 18\nTitle: Pharmacokinetics of SP-1 and SP-35 in Rat following IV dose\nThe patent's description of the figure: FIG. 18 illustrates the pharmacokinetic properties of SP-1 and SP-35 peptidomimetic macrocycles in rats.\nFirst reader's note: The title stands over the plot above the table and applies to both: rat, IV dose."}, "GST-Bcl-XL": {"target": "T2, GST-Bcl-XL (Homo sapiens, UniProt Q07817)", "T2 construct": "GST", "T2 sequence (Q07817 whole entry, looked up)": "as the sequence (Q07817 whole entry, species assumed) above", "assay": "Kd", "protocol": "Table printed on a drawing sheet, Figure 7\nThe patent's description of the figure: FIG. 7 depicts binding properties to GST-Bcl-XL of SP-1 and SP-35 peptidomimetic macrocycles.\nFirst copying reader's note: The table stands beside a saturation binding plot (2 µM receptor, 1x PBS + 5 mM CHAPS, 2.5% DMSO) whose legend names GST-Bcl-xL as the receptor for both peptides.\nWhere the first naming reader finds the target: description_of_the_figure: FIG. 7 depicts binding properties to GST-Bcl-XL of SP-1 and SP-35 peptidomimetic macrocycles."}, "GST-Bcl-2 [4]": {"target": "GST-Bcl-2", "assay": "Kd", "protocol": "Table printed on a drawing sheet, Figure 8\nThe patent's description of the figure: FIG. 8 depicts binding properties to GST-Bcl-2 of SP-1 and SP-35 peptidomimetic macrocycles.\nFirst copying reader's note: The Kd values belong to the plot beside the table, titled 'Saturation Binding Curves vs. 2 µM Receptor, 1x PBS + 5 mM CHAPS, 2.5% DMSO', whose legend names the receptor as GST-Bcl-2.\nWhere the first naming reader finds the target: description_of_the_figure: FIG. 8 depicts binding properties to GST-Bcl-2 of SP-1 and SP-35 peptidomimetic macrocycles.", "remark": "listed apart in the source"}, "[5]": {"assay": "Pepsin Stability: (E/S 1:50)", "from_the_text": "Table printed on a drawing sheet, Figure 12\nTitle: Pepsin Stability: (E/S 1:50)\nThe patent's description of the figure: FIG. 12 describes the comparative pepsin stability of SP-1 and SP-35 peptidomimetic macrocycles of the invention.\nFirst reader's note: The title is printed over the plot below the table; the rate constants and half-lives describe degradation by pepsin, and the time points used are on the plot's Time (min) axis."}}, "note": "Read-outs that look alike come from different tables or passages of the source. Starred links: 1 amine or outer side, 2 acyl side, 3 side chain; linkers in the order of their positions; H or OH if unused. Positions of bridges follow the written chain, without caps; N, C: chain ends. Non-standard residues stand in square brackets, D forms with d. Residues, ends and D or L forms follow the SMILES beside them. Nle(6-ylidene) = O=C([C@H](CCCC=[*:3])N[*:1])[*:2]; Nle = CCCC[C@H](N)C(=O)O"}
{"smiles": "CC[C@H](C)[C@H](NC(C)=O)C(=O)N[C@@H](Cc1c[nH]c2ccccc12)C(=O)N[C@H](C(=O)N[C@@H](C)C(=O)N[C@@H](CCC(N)=O)C(=O)N[C@@H](CCC(=O)O)C(=O)N[C@@H](CC(C)C)C(=O)N[C@@H](CCCNC(=N)N)C(=O)N[C@@]1(C)CCCC=CCCC[C@@](C)(C(=O)N[C@@H](Cc2ccccc2)C(=O)N[C@@H](CC(N)=O)C(=O)N[C@@H](C)C(=O)N[C@@H](Cc2ccc(O)cc2)C(=O)N[C@@H](Cc2ccc(O)cc2)C(=O)N[C@@H](C)C(=O)N[C@@H](CCCNC(=N)N)C(=O)N[C@@H](CCCNC(=N)N)C(N)=O)NC(=O)[C@H](CC(=O)O)NC(=O)CNC(=O)[C@H]([C@@H](C)CC)NC1=O)[C@@H](C)CC", "note": "[SP-4, Ac-IWIAQELR$IGD$FNAYYARR-NH2]", "values": [{"measurement": "AUC,inf", "setting": "[1]", "result": 38000, "unit": "ng·h/mL"}, {"measurement": "Cl", "setting": "[1]", "result": 1.37, "unit": "mL/min/kg"}, {"measurement": "Vss", "setting": "[1]", "result": 0.263, "unit": "L/kg"}, {"measurement": "Vz", "setting": "[1]", "result": 0.728, "unit": "L/kg"}, {"measurement": "Cmax", "setting": "[1]; rat, in vivo, iv", "result": 18100, "unit": "ng/mL"}, {"measurement": "MRT", "setting": "[1]; rat, in vivo, iv", "result": 3.1, "unit": "h"}, {"measurement": "Kd", "setting": "GST-Bcl-2 [2]", "result": 26, "unit": "nM"}, {"measurement": "Kd", "setting": "GST-Mcl-1", "result": 7, "unit": "nM"}, {"measurement": "detection of the protein-ligand complex by ESI-MS after size-exclusion chromatography", "setting": "Bcl-xL", "result": "detection of the protein-ligand complex"}]}
{"smiles": "CCCC[C@H](NC(=O)[C@@H]1CCCC=CCCC[C@H](NC(=O)[C@H](C)NC(=O)[C@H](CC(C)C)NC(=O)[C@H](Cc2c[nH]cn2)NC(=O)[C@H](CCCNC(=N)N)NC(=O)[C@H](C)NC(=O)[C@@H](NC(=O)[C@H](CC(N)=O)NC(=O)[C@H](CCCNC(=N)N)NC(=O)[C@@H](NC(=O)[C@@H](NC(=O)[C@H](CC(=O)O)NC(C)=O)[C@@H](C)CC)[C@@H](C)CC)[C@@H](C)CC)C(=O)N[C@@H](C(C)C)C(=O)NCC(=O)N[C@@H](CC(=O)O)C(=O)N1)C(=O)N[C@@H](CC(=O)O)C(=O)N[C@@H](CCCNC(=N)N)C(=O)N[C@@H](CO)C(=O)N[C@H](C(N)=O)[C@@H](C)CC", "note": "[SP-35, Ac-DIIRNIARHLA#VGD#NleDRSI-NH2] (Ac-DIIRNIARHLA[Nle(6-ylidene)]VGD[Nle(6-ylidene)][Nle]DRSI-NH2; staple 12-16)", "values": [{"measurement": "AUC,inf", "setting": "[3]", "result": 15400, "unit": "ng·h/mL"}, {"measurement": "Cl", "setting": "[3]", "result": 3.25, "unit": "mL/min/kg"}, {"measurement": "Vss", "setting": "[3]", "result": 0.132, "unit": "L/kg"}, {"measurement": "Vz", "setting": "[3]", "result": 2.025, "unit": "L/kg"}, {"measurement": "Cmax", "setting": "[3]; rat, in vivo, iv", "result": 32200, "unit": "ng/mL"}, {"measurement": "MRT", "setting": "[3]; rat, in vivo, iv", "result": 0.68, "unit": "h"}, {"measurement": "half-life", "setting": "[3]; rat, in vivo, iv", "result": 2.1, "unit": "h"}, {"measurement": "Kd", "setting": "GST-Bcl-XL", "result": "> 10000", "unit": "nM"}, {"measurement": "Kd", "setting": "GST-Bcl-2 [4]", "result": "> 10000", "unit": "nM"}, {"measurement": "K1 min^-1", "setting": "[5]", "result": 0.15, "unit": "min⁻¹"}, {"measurement": "K2 min^-1", "setting": "[5]", "result": 0.0430, "unit": "min⁻¹"}, {"measurement": "half-life^1", "setting": "[5]", "result": 4.6, "unit": "min"}, {"measurement": "half-life^2", "setting": "[5]", "result": 0.267, "unit": "h"}]}
